Measured values: PMC6987120, “Structural insights into ATP hydrolysis by the MoxR ATPase RavA and the LdcI-RavA cage-like complex” (Communications Biology, 2020)

Key:
[1] = biological target: T1, RavA (Escherichia coli, UniProt P31473); experiment: cryo-EM, […] and […] A maps with flexible fitting; assay type: binding; conditions: 1 mM ADP; intersubunit site; spiral with five ADP, closed ring with four ADP per hexamer
T1 construct: homohexamer (6 copies), open spiral and C2-symmetric closed ring; site at the interface of adjacent monomers

[2] = biological target: T2, LdcI–RavA complex (Escherichia coli, UniProt P31473); experiment: cryo-EM, […] and […] A maps with flexible fitting; assay type: binding; conditions: 2 mM ADP, 10 mM MgCl2, 0.1 mM PLP, pH 7.9; low local resolution of RavA
T2 construct: purified RavA and LdcI mixed in vitro; LdcI expressed in a ppGpp-null E. coli MG1655 host; with Inducible lysine decarboxylase

[3] = biological target: T2, LdcI–RavA complex; experiment: ATPase assay, inorganic phosphate by Fiske and Subbarow; assay type: biochemical; conditions: 2 mM ATP, 10 mM MgCl2, 50 mM MES/Tris pH 5-9, 25 °C; three-fold molar excess of LdcI

T2 sequence (P31473 whole entry): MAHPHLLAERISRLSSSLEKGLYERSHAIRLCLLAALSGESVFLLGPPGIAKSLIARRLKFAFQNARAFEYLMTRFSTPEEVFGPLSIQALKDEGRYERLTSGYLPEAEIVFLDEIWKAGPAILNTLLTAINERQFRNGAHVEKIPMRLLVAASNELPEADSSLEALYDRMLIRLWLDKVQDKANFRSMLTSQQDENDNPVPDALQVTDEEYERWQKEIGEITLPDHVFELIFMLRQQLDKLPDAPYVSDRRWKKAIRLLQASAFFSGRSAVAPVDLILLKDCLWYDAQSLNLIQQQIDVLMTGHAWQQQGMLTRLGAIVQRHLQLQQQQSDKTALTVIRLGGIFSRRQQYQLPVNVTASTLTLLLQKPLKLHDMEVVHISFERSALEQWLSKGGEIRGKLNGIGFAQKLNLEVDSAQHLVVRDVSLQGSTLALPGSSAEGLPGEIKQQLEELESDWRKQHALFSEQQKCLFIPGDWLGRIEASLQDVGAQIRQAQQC
T2 sequence (P0A9H3 whole entry partner): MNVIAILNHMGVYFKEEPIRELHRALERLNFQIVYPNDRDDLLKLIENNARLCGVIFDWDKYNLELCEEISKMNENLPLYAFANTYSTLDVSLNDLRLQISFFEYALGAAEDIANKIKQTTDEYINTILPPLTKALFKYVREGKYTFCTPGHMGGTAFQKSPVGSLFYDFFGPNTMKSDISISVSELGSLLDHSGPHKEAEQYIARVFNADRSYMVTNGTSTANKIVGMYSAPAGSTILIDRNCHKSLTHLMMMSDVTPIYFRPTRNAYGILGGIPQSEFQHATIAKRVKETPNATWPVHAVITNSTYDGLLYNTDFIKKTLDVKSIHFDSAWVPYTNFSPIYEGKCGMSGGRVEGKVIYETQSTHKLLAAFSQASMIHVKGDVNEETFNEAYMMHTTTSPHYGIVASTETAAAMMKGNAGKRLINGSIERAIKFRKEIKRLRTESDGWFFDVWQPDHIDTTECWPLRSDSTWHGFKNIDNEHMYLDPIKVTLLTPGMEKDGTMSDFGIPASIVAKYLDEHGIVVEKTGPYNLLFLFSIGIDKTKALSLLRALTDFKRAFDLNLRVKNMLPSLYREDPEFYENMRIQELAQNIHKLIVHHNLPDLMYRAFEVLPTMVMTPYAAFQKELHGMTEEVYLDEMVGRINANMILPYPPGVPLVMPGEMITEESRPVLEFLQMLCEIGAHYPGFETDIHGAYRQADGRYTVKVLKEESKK
T1 sequence (P31473 whole entry): as the sequence (P31473 whole entry) above

Row | SMILES | cryo-EM, 5.96 and 6.94 A maps with flexible fitting [1] | cryo-EM, 7.6 and 7.8 A maps with flexible fitting [2] | ATPase assay, inorganic phosphate by Fiske and Subbarow [3]
1 | Nc1ncnc2c1ncn2[C@@H]1O[C@H](COP(=O)(O)OP(=O)(O)O)[C@@H](O)[C@H]1O [ADP] | The map contains densities attributed to five ADP molecules bound to the interface | Cryo-EM maps of the two classes of the LdcI–RavA complex in ADP-bound state | 
2 | Nc1ncnc2c1ncn2[C@@H]1O[C@H](COP(=O)(O)OP(=O)(O)OP(=O)(O)O)[C@@H](O)[C@H]1O [ATP] |  |  | RavA is still able to efficiently hydrolyse ATP in the LdcI–RavA cage
